Like-named read-outs stand apart in the source and are kept apart here.
Legend:
Ovarian cancer subpanel = experiment: NCI five-dose assay, subpanel mean; type: cell-based, human; settings: for GI50: Homo sapiens, average sensitivity of all cell lines of the Ovarian cancer subpanel, read-out: GI50 Subpanel MID b; for GI50 Selectivity Ratio (MID a/MID b): Ovarian cancer subpanel
SR = experiment: NCI five-dose assay; type: cell-based, human; settings: Leukemia; for CC50: 48 h, read-out: LC50 (the source's name)
NCI 60 cell lines = experiment: NCI one-dose assay, full panel; type: cell-based, human; settings: Homo sapiens, 60 cell, read-out: cell growth inhibition percentage, range
LOX IMVI = experiment: NCI one-dose assay; type: cell-based; settings: Homo sapiens, Melanoma, read-out: Cell growth inhibition %
SN12C = experiment: NCI one-dose assay; type: cell-based; settings: Homo sapiens, Renal cancer, read-out: Cell growth inhibition %
SK-MEL-2 = experiment: NCI one-dose assay; type: cell-based; settings: Homo sapiens, SK-MEL-2, Melanoma, read-out: Cell growth inhibition %
SW-620 = experiment: NCI one-dose assay; type: cell-based; settings: Homo sapiens, SW-620, Colon cancer, read-out: Cell growth inhibition %
HOP-62 = experiment: NCI one-dose assay; type: cell-based; settings: Homo sapiens, HOP-62, Non-small cell lung cancer, read-out: Cell growth inhibition %
CCRF-CEM = experiment: NCI one-dose assay; type: cell-based; settings: Homo sapiens, Leukemia, read-out: Cell growth inhibition %
MOLT-4 = experiment: NCI one-dose assay; type: cell-based; settings: Homo sapiens, MOLT-4, Leukemia, read-out: Cell growth inhibition %
SF-268 = experiment: NCI one-dose assay; type: cell-based; settings: Homo sapiens, SF-268, CNS cancer, read-out: Cell growth inhibition %
HCT-15 = experiment: NCI one-dose assay; type: cell-based; settings: Homo sapiens, HCT-15, Colon cancer, read-out: Cell growth inhibition %
NCI/ADR-RES = experiment: NCI one-dose assay; type: cell-based; settings: Homo sapiens, Ovarian cancer, read-out: Cell growth inhibition %
DU-145 = experiment: NCI one-dose assay; type: cell-based; settings: Homo sapiens, DU-145, Prostate cancer, read-out: Cell growth inhibition %
OVCAR-3 = experiment: NCI one-dose assay; type: cell-based; settings: Homo sapiens, OVCAR-3, Ovarian cancer, read-out: Cell growth inhibition %
HCT-116 = experiment: NCI one-dose assay; type: cell-based; settings: Homo sapiens, HCT-116, Colon cancer, read-out: Cell growth inhibition %
PC-3 = experiment: NCI one-dose assay; type: cell-based; settings: Homo sapiens, PC-3, Prostate cancer, read-out: Cell growth inhibition %
NCI-H23 = experiment: NCI one-dose assay; type: cell-based; settings: Homo sapiens, NCI-H23, Non-small cell lung cancer, read-out: Cell growth inhibition %
SNB-19 = experiment: NCI one-dose assay; type: cell-based; settings: Homo sapiens, SNB-19, CNS cancer, read-out: Cell growth inhibition %
OVCAR-5 = experiment: NCI one-dose assay; type: cell-based; settings: Homo sapiens, OVCAR-5, Ovarian cancer, read-out: Cell growth inhibition %
COLO 205 = experiment: NCI one-dose assay; type: cell-based; settings: Homo sapiens, COLO 205, Colon cancer, read-out: Cell growth inhibition %
EKVX = experiment: NCI one-dose assay; type: cell-based; settings: Homo sapiens, Non-small cell lung cancer, read-out: Cell growth inhibition %
tubulin = molecular target: T1, tubulin (Sus scrofa, UniProt P02550+P02554); experiment: Tubulin polymerization inhibitory assay; type: biochemical
T1 construct: purchased Cytoskeleton Inc., Denver, CO, USA
T1 sequence (P02554 whole entry): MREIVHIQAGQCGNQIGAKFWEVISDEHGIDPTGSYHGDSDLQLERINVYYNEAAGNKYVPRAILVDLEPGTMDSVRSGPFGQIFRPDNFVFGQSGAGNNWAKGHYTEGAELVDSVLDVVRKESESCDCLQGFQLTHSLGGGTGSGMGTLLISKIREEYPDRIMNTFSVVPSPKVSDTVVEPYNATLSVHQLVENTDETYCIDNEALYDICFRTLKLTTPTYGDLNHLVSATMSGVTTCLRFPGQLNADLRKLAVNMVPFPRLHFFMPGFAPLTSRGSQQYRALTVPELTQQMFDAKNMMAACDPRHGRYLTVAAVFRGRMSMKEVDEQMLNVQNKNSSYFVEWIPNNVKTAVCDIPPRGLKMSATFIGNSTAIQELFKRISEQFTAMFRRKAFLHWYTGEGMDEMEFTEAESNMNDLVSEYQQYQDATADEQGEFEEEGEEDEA
T1 sequence (P02550 whole entry): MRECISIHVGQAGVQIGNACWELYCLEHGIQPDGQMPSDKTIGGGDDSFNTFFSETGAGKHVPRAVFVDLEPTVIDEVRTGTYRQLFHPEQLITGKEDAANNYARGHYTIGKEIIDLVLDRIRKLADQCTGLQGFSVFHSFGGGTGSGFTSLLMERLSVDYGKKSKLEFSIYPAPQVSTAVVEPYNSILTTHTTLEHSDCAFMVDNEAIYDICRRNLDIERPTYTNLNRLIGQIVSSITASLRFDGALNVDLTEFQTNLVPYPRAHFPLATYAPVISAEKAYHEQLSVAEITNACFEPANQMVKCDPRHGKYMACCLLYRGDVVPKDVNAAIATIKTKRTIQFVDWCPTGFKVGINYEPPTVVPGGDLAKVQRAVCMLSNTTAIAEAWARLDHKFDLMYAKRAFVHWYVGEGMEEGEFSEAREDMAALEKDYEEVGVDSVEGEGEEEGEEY
From the text: The substances’ effects on tubulin polymerization were examined using the Tubulin Polymerization Assay Kit (Cytoskeleton Inc., Denver, CO, USA) according to the supplier’s instructions, with details described in Appendix A..
The activity of compounds on tubulin polymerization was investigated using the Tubulin Polymerization Assay Kit (Cytoskeleton Inc., Denver, CO, USA), which works via fluorescent reporter enhancement. […] Docetaxel and vincristine (Apoteket AB, Stockholm, Sweden) served as positive stabilizing and destabilizing controls. Both were used at a 3 µM concentration in PBS.

786-0 = experiment: NCI one-dose assay; type: cell-based, human; settings: for inhibition at 10 µM: Homo sapiens, 786-0, 786-0, Renal cancer, read-out: Cell growth inhibition %
UO-31 = experiment: NCI one-dose assay; type: cell-based, human; settings: Homo sapiens, UO-31, UO-31, Renal cancer, read-out: Cell growth inhibition %
A498 = experiment: NCI one-dose assay; type: cell-based, human; settings: for inhibition at 10 µM: Homo sapiens, A498, A498, Renal cancer, read-out: Cell growth inhibition %
HOP-92 = experiment: NCI one-dose assay; type: cell-based, human; settings: Homo sapiens, HOP-92, HOP-92, Non-small cell lung cancer, read-out: Cell growth inhibition %
SK-OV-3 = experiment: NCI five-dose assay; type: cell-based, human; settings: SK-OV-3, Ovarian cancer; for CC50 / GI50: Homo sapiens; for CC50: 48 h, read-out: LC50 (the source's name); for GI50: read-out: GI50 Conc. per Cell Lines
[1] = conc 0.01 (unit not given; IC50 from this curve in µg/ml)
[2] = conc 0.1 (unit not given; IC50 from this curve in µg/ml)
[3] = conc 1 (unit not given; IC50 from this curve in µg/ml)
[4] = conc 10 (unit not given; IC50 from this curve in µg/ml)
[5] = conc 100 (unit not given; IC50 from this curve in µg/ml)
[6] = read-out: Tub. IC50±SD (converted)
[7] = read-out: Tubulin Inhibitory Effect, IC50

In the case of `Cc1ccc(C(=O)CSc2nnc(-c3c[nH]c4ccccc34)n2-c2ccccc2)cc1` [Compound 6h, 2-((5-(1H-Indol-3-yl)-4-phenyl-4H-1,2,4-triazol-3-yl)thio)-1-(p-tolyl)ethenone], the GI50 (Ovarian cancer subpanel) is reported as 17.4 µM, the “GI50 Selectivity Ratio (MID a/MID b)” value (Ovarian cancer subpanel) is reported as 1.10 and the CC50 (SR; Homo sapiens) is reported as > 100 µM. The GI50 (SR; Homo sapiens, read-out: GI50 Conc. per Cell Lines) was 42 µM, the “TGI Conc. per Cell Lines” value (SR) was “˃100 µM” and the inhibition at 10 µM (NCI 60 cell lines; ten cancer cell lines with complete cell death) was 101 to 141%. The inhibition at 10 µM (NCI 60 cell lines; twenty-five cell lines) was 67 to 99%, the inhibition at 10 µM (LOX IMVI) was 120% and the inhibition at 10 µM (SN12C) was 75.1%. For the same compound, the inhibition at 10 µM (SK-MEL-2) was 15.3%, the inhibition at 10 µM (SW-620) was 81% and the inhibition at 10 µM (HOP-62) was 92.2%. The inhibition at 10 µM (CCRF-CEM) was 39.2%, the inhibition at 10 µM (MOLT-4) was 38.3% and the inhibition at 10 µM (SF-268) was 70.3%. For the same compound, the inhibition at 10 µM (HCT-15) was 56.2%, the inhibition at 10 µM (NCI/ADR-RES) was 128% and the inhibition at 10 µM (DU-145) was 21.1%. For the same compound, the inhibition at 10 µM (OVCAR-3) was 34.8%, the inhibition at 10 µM (HCT-116) was 92.3% and the inhibition at 10 µM (PC-3) was 57%. The inhibition at 10 µM (NCI-H23) was 82.7%, the inhibition at 10 µM (SNB-19) was 80.3% and the inhibition at 10 µM (OVCAR-5) was 87%. The inhibition at 10 µM (COLO 205) was 25%, the inhibition at 10 µM (EKVX) was 47% and the “tubulin inhibitory activity, times lower than compound 7j” value (tubulin) was 1.5 times. For the same compound, the “%inhibition” value (tubulin; [1]) was 5.97%, the “%inhibition” value (tubulin; [2]) was 16.8% and the “%inhibition” value (tubulin; [3]) was 30%. The “%inhibition” value (tubulin; [4]) was 58%, the “%inhibition” value (tubulin; [5]) was 81.2% and the IC50 (tubulin; [6]) was 9.51 µM. It also gave an IC50 (tubulin; [7]) of 9.5 ± 0.3 µM, an inhibition at 10 µM (786-0) of 135% and an inhibition at 10 µM (UO-31) of 69.7%. It also gave an inhibition at 10 µM (A498) of 14.2%, an inhibition at 10 µM (HOP-92) of 108% and a CC50 (SK-OV-3) of 64.4 µM. For the same compound, the GI50 (SK-OV-3) was 17 µM and the “TGI Conc. per Cell Lines” value (SK-OV-3) was 33.10 µM.

For `O/N=C(\CSc1nnc(-c2c[nH]c3ccccc23)n1-c1ccccc1)c1ccc(Br)cc1` [Compound 7i, (Z)-2-((5-(1H-Indol-3-yl)-4-phenyl-4H-1,2,4-triazol-3-yl)thio)-1-(4-bromophenyl) Ethanone Oxime], the GI50 (Ovarian cancer subpanel) was 2.79 µM, the “GI50 Selectivity Ratio (MID a/MID b)” value (Ovarian cancer subpanel) was 1.00 and the CC50 (SR; Homo sapiens) was > 100 µM. For the same compound, the “TGI Conc. per Cell Lines” value (SR) was >100 µM, the inhibition at 10 µM (NCI 60 cell lines; eight cell lines) was 86 to 99% and the inhibition at 10 µM (NCI 60 cell lines; forty-nine cell lines with complete cell death) was 106 to 200%. For the same compound, the inhibition at 10 µM (LOX IMVI) was 187%, the inhibition at 10 µM (SN12C) was 177% and the inhibition at 10 µM (SK-MEL-2) was 166%. It also gave an inhibition at 10 µM (SW-620) of 186%, an inhibition at 10 µM (HOP-62) of 155% and an inhibition at 10 µM (CCRF-CEM) of 106%. For the same compound, the inhibition at 10 µM (MOLT-4) was 119%, the inhibition at 10 µM (SF-268) was 156% and the inhibition at 10 µM (HCT-15) was 193%. It also gave an inhibition at 10 µM (NCI/ADR-RES) of 174%, an inhibition at 10 µM (DU-145) of 188% and an inhibition at 10 µM (OVCAR-3) of 99.3%. The inhibition at 10 µM (HCT-116) was 136%, the inhibition at 10 µM (PC-3) was 164% and the inhibition at 10 µM (NCI-H23) was 85.9%. The inhibition at 10 µM (SNB-19) was 109%, the inhibition at 10 µM (OVCAR-5) was 183% and the inhibition at 10 µM (COLO 205) was 141%. The inhibition at 10 µM (EKVX) was 163%, the “%inhibition” value (tubulin; [1]) was 6.76% and the “%inhibition” value (tubulin; [2]) was 21%. The “%inhibition” value (tubulin; [3]) was 47.4%, the “%inhibition” value (tubulin; [4]) was 68.5% and the “%inhibition” value (tubulin; [5]) was 87%. For the same compound, the IC50 (tubulin; [6]) was 3.03 µM, the IC50 (tubulin; [7]) was 3.03 ± 0.11 µM and the “Cell growth inhibition %” value (786-0; 786-0, Renal cancer, 10 µM) was 65.25%. For the same compound, the inhibition at 10 µM (786-0) was 65%, the inhibition at 10 µM (UO-31) was 96.4% and the “Cell growth inhibition %” value (A498; A498, Renal cancer, 10 µM) was 37.85%. The inhibition at 10 µM (A498) was 38%, the inhibition at 10 µM (HOP-92) was 111% and the CC50 (SK-OV-3) was 27.4 µM. For the same compound, the GI50 (SK-OV-3) was 2.53 µM and the “TGI Conc. per Cell Lines” value (SK-OV-3) was 6.03 µM.

— publication PMC11859928, “Design, Synthesis, and Antiproliferative Activity of Novel Indole/1,2,4-Triazole Hybrids as Tubulin Polymerization Inhibitors” (Pharmaceuticals, 2025)
